Our source for the EC50 values is patent US8735398B2 (Bristol-Myers Squibb Company, priority 2009, dated 2014).

The first assay relates to HCV 1b genotype. Description: HCV replicon assay (HCV-neo replicon cells, wild-type). The class given is cell-based, Hepatitis C virus. The settings on record: HCV 1b genotype replicon; class symbol; read-out: EC50 Range against HCV 1b. A digest of the protocol:
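Inhibition was tested in replicon-bearing cells, both wild-type HCV-neo and lines with NS5A resistance substitutions, using the O'Boyle et al. 2005 replicon method or luciferase-reporter formats.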
As a reminder, the EC50 is the concentration needed to bring the measured effect to its halfway point. Regarding `CC(C)(C)OC(=O)N1CCCC1C(=O)N1CCCC1C(=O)Nc1ccc(-c2cnc(-c3ccc(NC(=O)C4CCCN4C(=O)C4CCCN4C(=O)OC(C)(C)C)cc3)o2)cc1` [Example D-27, di-tert-butyl (2S,2′S)-2,2′-(1,3-oxazole-2,5-diylbis(4,1-phenylenecarbamoyl(2S)-2,1-pyrrolidinediylcarbonyl))di(1-pyrrolidinecarboxylate)], the 50% effective concentration (EC50) lay within 1 to 10 µM.
The same measure, in the same setting: the result for `CN(C)C(C(=O)N1CCC[C@H]1C(=O)Nc1ccc(-c2cnc(-c3ccc(NC(=O)[C@@H]4CCCN4C(=O)C(c4ccc(F)cc4F)N(C)C)cc3)o2)cc1)c1ccc(F)cc1F` (single isomer, unassigned) [Example D-6] reads less than 0.00457 µM; that for `CC1(C)CC(C)(C(=O)N2CCC[C@H]2C(=O)Nc2ccc(-c3cnc(-c4ccc(NC(=O)[C@@H]5CCCN5C(=O)C5(C)CC(C)(C)C(=O)N5)cc4)o3)cc2)NC1=O` (stereo partly drawn) [Example D-25, (2S,2′S)-N,N′-(4,4′-(oxazole-2,5-diyl)bis(4,1-phenylene))bis(1-(2,4,4-trimethyl-5-oxopyrrolidine-2-carbonyl)pyrrolidine-2-carboxamide)], 1 to 10 µM.
Same read-out and setting: the value for `CCCC[C@H](NC(=O)Cc1ccccc1)C(=O)Nc1ccc(-c2cnc(-c3ccc(NC(=O)[C@H](CCCC)NC(=O)Cc4ccccc4)cc3)o2)cc1` [JG-17, (2S,2′S)-N,N′-(4,4′-(oxazole-2,5-diyl)bis(4,1-phenylene))bis(2-(2-phenylacetamido)hexanamide)] was 0.1 to 0.999 µM.

Staying with this assay, now noted: HCV 1b genotype replicon; class symbols; read-out: EC50 Range against HCV 1b.
Take `CN(C)[C@H](C(=O)N1CCC[C@H]1C(=O)Nc1ccc(-c2cnc(-c3ccc(NC(=O)[C@@H]4CCCN4C(=O)[C@H]([C@@H](O)c4ccsc4)N(C)C)cc3)o2)cc1)[C@@H](O)c1ccsc1` [JR-15, (S,S,2S)-N,N′-(4,4′-(oxazole-2,5-diyl)bis(4,1-phenylene))bis(1-((2S,3S)-2-(dimethylamino)-3-hydroxy-3-(thiophen-3-yl)propanoyl)pyrrolidine-2-carboxamide)]: the EC50 was in the range of 0.00457 to 0.099 µM.

Still in this assay, the particulars now being: HCV 1b genotype replicon; read-out: EC50 1b.
Regarding `CC1(C)CC(C)(C(=O)N2CCC[C@H]2C(=O)Nc2ccc(-c3cnc(-c4ccc(NC(=O)[C@@H]5CCCN5C(=O)C5(C)CC(C)(C)C(=O)N5)cc4)o3)cc2)NC1=O` (stereo partly drawn) [Example D-25, (2S,2′S)-N,N′-(4,4′-(oxazole-2,5-diyl)bis(4,1-phenylene))bis(1-(2,4,4-trimethyl-5-oxopyrrolidine-2-carbonyl)pyrrolidine-2-carboxamide)], the concentration for a half-maximal effect (EC50) came to 5.33 µM.

The same assay, now with this note: Hepatitis C virus, HCV 1b genotype replicon; class symbol; read-out: EC50 Range against HCV 1b.
On to `CO[C@H](C(=O)N1CCC[C@H]1C(=O)Nc1ccc(-c2cc(-c3ccc(NC(=O)[C@@H]4CCCN4C(=O)[C@@H](OC)c4ccccc4)cc3)[nH]n2)cc1)c1ccccc1` [JG-38, (2S,2′S)-N,N′-(1H-pyrazole-3,5-diyldi-4,1-phenylene)bis(1-((2S)-2-methoxy-2-phenylacetyl)-2-pyrrolidinecarboxamide)], for which the EC50 was less than 0.00457 µM.
In the case of `CC(C)[C@@H](NC(=O)OCc1ccccc1)C(=O)Nc1ccc(-c2cnc(-c3ccc(NC(=O)[C@H](NC(=O)OCc4ccccc4)C(C)C)cc3)o2)cc1` [JG-5, dibenzyl (1,3-oxazole-2,5-diylbis(4,1-phenyleneimino((2R)-3-methyl-1-oxo-1,2-butanediyl)))biscarbamate], the concentration giving a half-maximal response (EC50) fell in the range of 1 to 10 µM.
Still for that read-out and setting: the result for `O=C(Nc1ccc(-c2cnc(-c3ccc(NC(=O)[C@@H]4CCCN4C(=O)OCc4ccccc4)cc3)o2)cc1)[C@@H]1CCCN1C(=O)OCc1ccccc1` [JG-1, dibenzyl (2S,2′S)-2,2′-(1,3-oxazole-2,5-diylbis(4,1-phenylenecarbamoyl))di(1-pyrrolidinecarboxylate)] reads less than 0.00457 µM; that for `CC(=O)N1CCC[C@H]1C(=O)Nc1ccc(-c2cnc(-c3ccc(NC(=O)[C@@H]4C=CCN4C(=O)Cc4cccs4)cc3)o2)cc1` [Example D-1, (2S)-N-[4-[5-[4-[[[(2S)-1-acetyl-2-pyrrolidinyl]carbonyl]amino]phenyl]-2-oxazolyl]phenyl]-2,5-dihydro-1-(2-thienylacetyl)-1H-pyrrole-2-carboxamide], 1 to 10 µM.
Consider `O=C(Nc1ccc(-c2nnc(-c3ccc(NC(=O)[C@@H]4CCCN4C(=O)[C@@H]4CCCO4)cc3)o2)cc1)[C@@H]1CCCN1C(=O)[C@@H]1CCCO1` [RK-14, (2S,2′S)-N,N′-(1,3,4-oxadiazole-2,5-diyldi-4,1-phenylene)bis(1-((2S)-tetrahydro-2-furanylcarbonyl)-2-pyrrolidinecarboxamide)], for which the EC50 was in the range of 0.1 to 0.999 µM.
The same measure, in the same setting: the value for `CC(=O)N1CCC[C@H]1C(=O)Nc1ccc(-c2cnc(-c3ccc(NC(=O)[C@@H]4C=CCN4C(=O)c4ccno4)cc3)o2)cc1` [Example D-3, (2S)-N-[4-[5-[4-[[[(2S)-1-acetyl-2-pyrrolidinyl]carbonyl]amino]phenyl]-2-oxazolyl]phenyl]-2,5-dihydro-1-(5-isoxazolylcarbonyl)-1H-pyrrole-2-carboxamide] was 1 to 10 µM.
The same measure, in the same setting: the result for `COc1cccc2c(C(=O)N3CCC[C@H]3C(=O)Nc3ccc(-c4ccc(-c5ccc(NC(=O)[C@@H]6CCCN6C(=O)c6nc(Cl)cc7c(OC)cccc67)cc5)o4)cc3)nc(Cl)cc12` [JG-60, (2S,2′S)-N,N′-(2,5-furandiyldi-4,1-phenylene)bis(1-((3-chloro-5-methoxy-1-isoquinolinyl)carbonyl)-2-pyrrolidinecarboxamide)] reads 1 to 10 µM; that for `COc1cccc2c(C(=O)N3CCC[C@H]3C(=O)Nc3ccc(-c4ccc(-c5ccc(NC(=O)[C@@H]6CCCN6C(=O)[C@@H](c6ccccc6)N(C)C)cc5)o4)cc3)nc(Cl)cc12` [JG-65, (2S)-1-((3-chloro-5-methoxy-1-isoquinolinyl)carbonyl)-N-(4-(5-(4-((((2S)-1-((2R)-2-(dimethylamino)-2-phenylacetyl)-2-pyrrolidinyl)carbonyl)amino)phenyl)-2-furyl)phenyl)-2-pyrrolidinecarboxamide], less than 0.00457 µM.
Same read-out and setting: the result for `O=C(Nc1ccc(-c2cc(-c3ccc(NC(=O)[C@@H]4CCCN4C(=O)[C@H](O)c4ccccc4)cc3)[nH]n2)cc1)[C@@H]1CCCN1C(=O)[C@H](O)c1ccccc1` [JG-32, (2S,2′S)-N,N′-(1H-pyrazole-3,5-diyldi-4,1-phenylene)bis(1-((2R)-2-hydroxy-2-phenylacetyl)-2-pyrrolidinecarboxamide)] reads less than 0.00457 µM; that for `NC(=O)[C@@H]1C[C@@H]2C[C@@H]2N1C(=O)C1c2ccccc2C=CN1c1ccc(-c2ncc(-c3ccc(NC(=O)[C@@H]4C[C@@H]5C[C@@H]5N4C(=O)c4nccc5ccccc45)cc3)o2)cc1` (stereo partly drawn) [CB-2, (1S,3S,5S,1′S,3′S,5′S)-N,N′-(1,3-oxazole-2,5-diyldi-4,1-phenylene)bis(2-(1-isoquinolinylcarbonyl)-2-azabicyclo[3.1.0]hexane-3-carboxamide)], 0.1 to 0.999 µM; that for `CO[C@H]1C[C@@H](C(=O)Nc2ccc(-c3cnc(-c4ccc(NC(=O)[C@@H]5C[C@H](OC)CN5C(=O)C(NC(C)=O)c5ccccc5)cc4)o3)cc2)N(C(=O)C(NC(C)=O)c2ccccc2)C1` (stereo partly drawn) [OL-60, (2S,4S,2′S,4′S)-N,N′-(1,3-oxazole-2,5-diyldi-4,1-phenylene)bis(1-(acetamido(phenyl)acetyl)-4-methoxy-2-pyrrolidinecarboxamide)], 0.00457 to 0.099 µM.
Turning to `O=C(Nc1ccc(-c2cnc(-c3ccc(NC(=O)[C@@H]4CCCN4C(=O)[C@H](O)c4ccccc4)cc3)o2)cc1)[C@@H]1CCCN1C(=O)[C@H](O)c1ccccc1` [JG-23, (2S,2′S)-N,N′-(1,3-oxazole-2,5-diyldi-4,1-phenylene)bis(1-((2R)-2-hydroxy-2-phenylacetyl)-2-pyrrolidinecarboxamide)], the EC50 is less than 0.00457 µM.

Still in this assay, the particulars now being: Hepatitis C virus, HCV 1b genotype replicon; class symbols; read-out: EC50 Range against HCV 1b.
With `O=C(Nc1ccc(-c2cnc(-c3ccc(NC(=O)[C@@H]4CCCN4C(=O)c4ccc5c(c4)OCO5)cc3)o2)cc1)[C@@H]1CCCN1C(=O)c1ccc2c(c1)OCO2` [XY-36, (2S,2′S)-N,N′-(1,3-oxazole-2,5-diyldi-4,1-phenylene)bis(1-(1,3-benzodioxol-5-ylcarbonyl)-2-pyrrolidinecarboxamide)], the EC50 was in the range of 0.1 to 0.999 µM.
Same read-out and setting: the value for `COc1ccc2[nH]cc(CC(=O)N3CCC[C@H]3C(=O)Nc3ccc(-c4cnc(-c5ccc(NC(=O)[C@@H]6CCCN6C(=O)Cc6c[nH]c7ccc(OC)cc67)cc5)o4)cc3)c2c1` [XY-11, (2S,2′S)-N,N′-(1,3-oxazole-2,5-diyldi-4,1-phenylene)bis(1-((5-methoxy-1H-indol-3-yl)acetyl)-2-pyrrolidinecarboxamide)] was 0.1 to 0.999 µM; that for `O=C(Nc1ccc(-c2cnc(-c3ccc(NC(=O)[C@@H]4CCCN4C(=O)CC4CC4)cc3)o2)cc1)[C@@H]1CCCN1C(=O)CC1CC1` [XY-24, (2S,2′S)-N,N′-(1,3-oxazole-2,5-diyldi-4,1-phenylene)bis(1-(cyclopropylacetyl)-2-pyrrolidinecarboxamide)] was 0.1 to 0.999 µM; that for `O=C(Nc1ccc(-c2cnc(-c3ccc(NC(=O)[C@@H]4CCCN4C(=O)c4ccccn4)cc3)o2)cc1)[C@@H]1CCCN1C(=O)c1ccccn1` [XY-6, (2S,2′S)-N,N′-(1,3-oxazole-2,5-diyldi-4,1-phenylene)bis(1-(2-pyridinylcarbonyl)-2-pyrrolidinecarboxamide)] was 1 to 10 µM.
Turning to `O=C(Nc1ccc(-c2cnc(-c3ccc(NC(=O)[C@@H]4CCCN4C(=O)c4ccc[nH]4)cc3)o2)cc1)[C@@H]1CCCN1C(=O)c1ccc[nH]1` [XY-33, (2S,2′S)-N,N′-(1,3-oxazole-2,5-diyldi-4,1-phenylene)bis(1-(1H-pyrrol-2-ylcarbonyl)-2-pyrrolidinecarboxamide)], the EC50 was 1 to 10 µM.
On to `Cn1ccnc1C(=O)N1CCC[C@H]1C(=O)Nc1ccc(-c2cnc(-c3ccc(NC(=O)[C@@H]4CCCN4C(=O)c4nccn4C)cc3)o2)cc1` [XY-21, (2S,2′S)-N,N′-(1,3-oxazole-2,5-diyldi-4,1-phenylene)bis(1-((1-methyl-1H-imidazol-2-yl)carbonyl)-2-pyrrolidinecarboxamide)], for which the EC50 lay in the range of 1 to 10 µM.
In the case of `O=C(Nc1ccc(-c2cnc(-c3ccc(NC(=O)[C@@H]4CCCN4C(=O)[C@H]4CCCO4)cc3)o2)cc1)[C@@H]1CCCN1C(=O)[C@H]1CCCO1` [XY-32, (2S,2′S)-N,N′-(1,3-oxazole-2,5-diyldi-4,1-phenylene)bis(1-((2R)-tetrahydro-2-furanylcarbonyl)-2-pyrrolidinecarboxamide)], the EC50 lay in the range of 0.00457 to 0.099 µM.

The assay is the same for the next values; noted with them: Hepatitis C virus, HCV 1b genotype replicon; read-out: EC50 1b.
Consider `CC(C)[C@@H](NC(=O)OCc1ccccc1)C(=O)Nc1ccc(-c2cnc(-c3ccc(NC(=O)[C@H](NC(=O)OCc4ccccc4)C(C)C)cc3)o2)cc1` [JG-5, dibenzyl (1,3-oxazole-2,5-diylbis(4,1-phenyleneimino((2R)-3-methyl-1-oxo-1,2-butanediyl)))biscarbamate], for which the EC50 was determined as 10 µM.
